System: SEM cells
Assay: cell viability relative to DMSO control; higher = less cytotoxic
Conditions: 48 h
In short: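 Viability, reported as a per-plate percentage of DMSO wells with cell-free wells as background, came from CellTiter-Glo One luminescence. Reading took place after 48 h at 37°C. Before that, NOMO1 or SEM (500 cells/well) or P12-Ichikawa (1000 cells/well) leukemia cells, adapted for at least four passages in each medium, were seeded in 1536-well plates (5 μl) and pin-dosed with library compounds in DMSO, 47 μM to 0.79 nM over 11 threefold points.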

[1] = HPLM + 10% dialyzed FBS, 0.000781 µM
[2] = HPLM + 10% dialyzed FBS, 0.00234 µM
[3] = HPLM + 10% dialyzed FBS, 0.00702 µM
[4] = HPLM + 10% dialyzed FBS, 0.0211 µM
[5] = HPLM + 10% dialyzed FBS, 0.0632 µM
[6] = HPLM + 10% dialyzed FBS, 0.19 µM
[7] = HPLM + 10% dialyzed FBS, 0.569 µM
[8] = HPLM + 10% dialyzed FBS, 1.71 µM
[9] = HPLM + 10% dialyzed FBS, 5.12 µM
[10] = HPLM + 10% dialyzed FBS, 15.4 µM
[11] = HPLM + 10% dialyzed FBS, 46.1 µM
[12] = RPMI 5 mM glucose + 10% FBS, 0.000781 µM
[13] = RPMI 5 mM glucose + 10% FBS, 0.00234 µM
[14] = RPMI 5 mM glucose + 10% FBS, 0.00702 µM
[15] = RPMI 5 mM glucose + 10% FBS, 0.0211 µM
[16] = RPMI 5 mM glucose + 10% FBS, 0.0632 µM
[17] = RPMI 5 mM glucose + 10% FBS, 0.19 µM
[18] = RPMI 5 mM glucose + 10% FBS, 0.569 µM
[19] = RPMI 5 mM glucose + 10% FBS, 1.71 µM
[20] = RPMI 5 mM glucose + 10% FBS, 5.12 µM
[21] = RPMI 5 mM glucose + 10% FBS, 15.4 µM
[22] = RPMI 5 mM glucose + 10% FBS, 46.1 µM
[23] = RPMI 5 mM glucose + 10% dialyzed FBS, 0.000781 µM
[24] = RPMI 5 mM glucose + 10% dialyzed FBS, 0.00234 µM
[25] = RPMI 5 mM glucose + 10% dialyzed FBS, 0.00702 µM
[26] = RPMI 5 mM glucose + 10% dialyzed FBS, 0.0211 µM
[27] = RPMI 5 mM glucose + 10% dialyzed FBS, 0.0632 µM
[28] = RPMI 5 mM glucose + 10% dialyzed FBS, 0.19 µM
[29] = RPMI 5 mM glucose + 10% dialyzed FBS, 0.569 µM
[30] = RPMI 5 mM glucose + 10% dialyzed FBS, 1.71 µM
[31] = RPMI 5 mM glucose + 10% dialyzed FBS, 5.12 µM
[32] = RPMI 5 mM glucose + 10% dialyzed FBS, 15.4 µM
[33] = RPMI 5 mM glucose + 10% dialyzed FBS, 46.1 µM

Row | Structure (SMILES) | cell viability [1] [%] | cell viability [2] [%] | cell viability [3] [%] | cell viability [4] [%] | cell viability [5] [%] | cell viability [6] [%] | cell viability [7] [%] | cell viability [8] [%] | cell viability [9] [%] | cell viability [10] [%] | cell viability [11] [%] | cell viability [12] [%] | cell viability [13] [%] | cell viability [14] [%] | cell viability [15] [%] | cell viability [16] [%] | cell viability [17] [%] | cell viability [18] [%] | cell viability [19] [%] | cell viability [20] [%] | cell viability [21] [%] | cell viability [22] [%] | cell viability [23] [%] | cell viability [24] [%] | cell viability [25] [%] | cell viability [26] [%] | cell viability [27] [%] | cell viability [28] [%] | cell viability [29] [%] | cell viability [30] [%] | cell viability [31] [%] | cell viability [32] [%] | cell viability [33] [%]
1 | C[C@@H](NCc1cc2ccccc2[nH]1)c1cccc2ccccc12 | 80 | 80.5 | 86.2 | 83.3 | 77.7 | 107 | 89.7 | 95.9 | 89.2 | 89.7 | 41.9 | 84.1 | 86.6 | 87.2 | 90.3 | 74.5 | 92.2 | 97.5 | 84.4 | 92.9 | 85.9 | 39.5 | 90 | 84.1 | 86 | 82.9 | 71.7 | 101 | 93.3 | 93 | 93.1 | 85.6 | 57.9
2 | O=P1(N(CCCl)CCCl)NCCCO1 (stereo unspecified) | 113 | 104 | 96.5 | 110 | 110 | 114 | 92.8 | 111 | 84.8 | 29.5 | 17.9 |  |  |  |  |  |  |  |  |  |  |  | 96.6 | 95.6 | 98.6 | 119 | 99.7 | 102 | 109 | 84 | 80.5 | 20.2 | 11.4
3 | Oc1cc2c(cc1O)C1c3ccc(O)c(O)c3OCC1(O)C2 (stereo unspecified) | 83.5 | 32.7 | 89.1 | 88.3 | 100 | 102 | 93 | 100 | 99.7 | 100 | 90.6 | 83.8 | 36.7 | 99.2 | 102 | 91.3 | 105 | 101 | 88.8 | 108 | 101 | 87.7 | 92.7 | 34.3 | 102 | 91.7 | 86.4 | 107 | 92.9 | 106 | 104 | 111 | 89.5
4 | CN(c1nccc(=O)[nH]1)C1CCN(c2nc3ccccc3n2Cc2ccc(F)cc2)CC1 | 105 | 107 | 115 | 113 | 112 | 113 | 108 | 110 | 115 | 91 | 123 | 78.4 | 94.8 | 95 | 80 | 84.8 | 88.9 | 95.3 | 98.1 | 91.9 | 79.7 | 87.7 | 94.7 | 103 | 102 | 111 | 106 | 113 | 109 | 106 | 101 | 104 | 99.6
5 | N#CC1(c2ccc(NC(=O)c3cccnc3NCc3ccncc3)cc2)CCCC1 | 120 | 123 | 123 | 118 | 116 | 102 | 124 | 113 | 91 | 80.7 | 81.4 |  |  |  |  |  |  |  |  |  |  |  |  |  |  |  |  |  |  |  |  |  | 
6 | CC(C)C(=O)Nc1ncc(-c2cc(C(F)F)nn2-c2c(Cl)cccc2Cl)s1 | 109 | 117 | 120 | 121 | 130 | 121 | 133 | 146 | 124 | 114 | 48.7 |  |  |  |  |  |  |  |  |  |  |  | 102 | 114 | 140 | 130 | 124 | 132 | 138 | 142 | 134 | 126 | 57.5
7 | CC1(C)Cc2c(sc(NC(=S)NC(=O)c3ccccc3)c2C(=O)O)CO1 | 74.1 | 89.5 | 91.9 | 89.1 | 96.7 | 98.3 | 97.6 | 108 | 101 | 88.3 | 101 | 94 | 109 | 108 | 93.1 | 112 | 112 | 110 | 113 | 101 | 105 | 106 | 65.2 | 84 | 85.4 | 87.8 | 96.6 | 88.3 | 95.4 | 91.7 | 89.6 | 102 | 88.5
8 | CCc1cccc2c3c([nH]c12)C(CC)(CC(=O)O)OCC3 (stereo unspecified) | 105 | 90.9 | 105 | 112 | 101 | 120 | 114 | 108 | 103 | 47.2 | 103 | 83.6 | 37.6 | 85.4 | 96.2 | 98 | 87.6 | 105 | 102 | 105 | 40.7 | 91.9 | 94.2 | 93 | 102 | 107 | 112 | 103 | 102 | 110 | 105 | 34.7 | 89.4
9 | CC(Cc1ccc(O)c(O)c1)(NN)C(=O)O (stereo unspecified) | 103 | 121 | 130 | 125 | 122 | 131 | 105 | 112 | 108 | 119 | 79.9 | 117 | 130 | 122 | 127 | 126 | 119 | 99 | 121 | 110 | 113 | 76.1 |  |  |  |  |  |  |  |  |  |  | 
10 | O=C(O)CCNc1cc(N2CCc3ccccc3CC2)nc(-c2ccccn2)n1 | 123 | 120 | 130 | 127 | 139 | 144 | 129 | 133 | 121 | 129 | 139 | 105 | 124 | 123 | 118 | 121 | 103 | 103 | 95.9 | 99.2 | 115 | 76.9 | 112 | 116 | 127 | 110 | 116 | 120 | 130 | 112 | 101 | 120 | 99.6
11 | CCC(=O)OC1CCC2C3CCC/4=C/C(=O)CC[C@@]4(C)C3CC[C@]12C (stereo partly specified) | 104 | 107 | 110 | 118 | 132 | 115 | 128 | 141 | 123 | 121 | 137 | 102 | 107 | 116 | 119 | 133 | 138 | 124 | 128 | 120 | 125 | 117 | 102 | 111 | 102 | 114 | 139 | 114 | 115 | 137 | 120 | 127 | 127
12 | CN[C@H]1[C@H](O[C@@H]2[C@H](O[C@@H]3[C@@H](O)[C@@H](O)[C@@H](NC(=N)N)[C@@H](O)[C@H]3NC(=N)N)O[C@H](C)[C@@]2(O)C=O)O[C@@H](CO)[C@@H](O)[C@H]1O | 93.2 | 89.9 | 79.7 | 80.2 | 79.9 | 82.2 | 83.7 | 57 | 83.3 | 82.1 | 78.6 | 95.1 | 116 | 119 | 114 | 114 | 110 | 104 | 44.8 | 103 | 85.6 | 99.3 | 109 | 103 | 118 | 114 | 117 | 114 | 109 | 80.4 | 103 | 111 | 101
13 | OCCNC1CCCc2c1[nH]c1ccc(-c3ccccc3)cc21 (stereo unspecified) | 81.1 | 86.7 | 91.5 | 84.7 | 106 | 101 | 90.2 | 100 | 85.4 | 67.3 | 19.5 | 99.6 | 87.8 | 101 | 109 | 108 | 105 | 88.7 | 91.6 | 74 | 56.1 | 5.82 | 85.6 | 87.9 | 89.7 | 96.1 | 88.7 | 104 | 99 | 94.2 | 94.7 | 68.2 | 22.9
14 | CCCCOc1ccc(CC(=O)NO)cc1 | 107 | 115 | 105 | 125 | 101 | 102 | 109 | 91.3 | 101 | 76.4 | 51.8 | 116 | 99.5 | 109 | 116 | 97 | 113 | 114 | 104 | 109 | 108 | 46.5 | 107 | 122 | 108 | 116 | 98.7 | 115 | 109 | 113 | 107 | 102 | 39.9
15 | CN1C2=CC(=O)/C(=N/NC(N)=O)C=C2CC1S(=O)(=O)[O-].[Na+] (stereo unspecified) | 79.9 | 110 | 96.7 | 103 | 103 | 110 | 117 | 105 | 124 | 103 | 115 | 109 | 108 | 114 | 115 | 103 | 115 | 112 | 121 | 128 | 125 | 112 | 95.5 | 109 | 98.5 | 110 | 94.6 | 116 | 126 | 114 | 118 | 117 | 109
16 | C=CC(=O)Nc1cccc(Oc2nc(Nc3ccc(N4CCN(C)CC4)cc3OC)ncc2Cl)c1 | 58.4 | 72.7 | 56.4 | 65.8 | 74 | 81.1 | 72.3 | 68.5 | 33.2 | 48 | 13.3 | 80.4 | 89.2 | 60.5 | 88.2 | 94.2 | 91.2 | 56.4 | 65.3 | 22.6 | 41.6 | 5.05 | 62.5 | 69.8 | 52.6 | 58.2 | 70.8 | 72.9 | 64.1 | 42.3 | 24.1 | 41.8 | 18
17 | CC[C@H](NC(C)C)[C@H](O)c1ccc(O)c2[nH]c(=O)ccc12 | 75.6 | 90.5 | 101 | 92.8 | 89.3 | 100 | 94.6 | 98.1 | 98.5 | 98.8 | 68.4 | 89.2 | 112 | 96.9 | 107 | 109 | 98.1 | 108 | 100 | 104 | 106 | 79.3 | 100 | 87.5 | 98 | 109 | 119 | 109 | 125 | 105 | 113 | 98.9 | 85.5
